Results as given in patent US20060258589A1, “Methods for enhancing radiation therapy” (IGF Oncology, LLC, priority 2004, published 2006).

B1: LONG-R3-IGF-1: variant IGF-1 with reduced binding affinity for the soluble IGF-1 binding proteins (SEQ ID NO:1) (protein)
chain: MFPAMPLSSLFVNGPRTLCGAELVDALQFVCGDRGFYFNKPTGYSSSRRAPQTGIVDECCFRSCDLRRLEMYCAPLKPAKSA
modifications: LONG-R3-IGF-1 synthetic variant of IGF-1

Tests used:
[1] = test system: cancer cells; settings: Ciftci 2003; cited from earlier work
[2] = test system: MiaPaCa, LnCap, H226 and A549 cells; assay: In vitro assays: surviving fraction (colony formation) of cancer cells after X-ray irradiation; format: cell-based, human; settings: hormone added before 200 rads X-rays; for sensitization to radiation: exponential phase cells; for cell killing by radiation: plateau-phase cells, at least some concentrations and times
Experimental: MiaPaCa (a human pancreatic cancer cell line), LnCap (a human prostate cancer cell line), H226 and A549 (two human lung cancer cell lines) are grown in monolayer cultures in McCoy's 5A medium containing 10% fetal bovine serum and buffered with 2.0 g/L sodium bicarbonate and 0.02 M Hepes, pH 7.4. The cells are at seeded at 6×10^4 cells per T30 flask. On day 3 the medium is changed. The cells are irradiated at either 4 days (exponential cells) or 7 days (plateau-phase cells). Twenty minutes before, 2 hours before, or immediately before irradiation, insulin (0.01, 0.1, or 1 μg/ml) or IGF-1 (3, 20, or 150 ng/ml) is added to the medium. Control cells have no added hormone. The cells are then irradiated with 200 rads X-rays. After irradiation, the cells are allowed to recover in the used medium for 60 minutes.
The cells are then typsinized and plated in fresh medium. The surviving fraction of a specific number of plated cells is determined by staining colonies with methylene blue after 7-10 days of growth.
Exponential-phase and plateau-phase cells are then treated with insulin and IGF-1 separately and together at their experimentally determined optimal concentrations immediately before, 15 minutes before, and 2 hours before irradiation with a range of radiation doses. Again, the cells are trypsinized and plated, and the percent surviving is determined.
Exponential- and plateau-phase cells are then treated with insulin at the optimal concentration in combination with 30 mM glucose.

[3] = test system: LnCap, MiaPaCa, H226, and A549 tumors; assay: In vivo assays: growth of tumor volume after irradiation of subcutaneous tumors in nude mice; settings: male nude mice; treated 30 minutes before 15 Gy X-rays; followed for 3 weeks
Experimental: LnCap, MiaPaCa, H226, and A549 cells are grown in culture. Cells are harvested using 0.25% trypsin, washed, suspended in Dulbecco's PBS, and counted. 1×10^6 cells are injected subcutaneously into the hind thigh of male nude mice. Tumors are grown to 250 mm^3 in ˜21 days. Tumors are measured with a caliper, and the tumor size is calculated by the formula a^2b/2, where a and b are the shorter and longer diameters of the tumor, respectively. When the tumors reach 250 mm^3, the mice are treated with insulin (5 or 40 μg/kg), IGF-1 (5 or 100 μg/kg) or insulin+glucose (5 g glucose/kg), or growth hormone (50 or 500 μg/kg), or saline control 30 minutes before radiation treatment. The mice are anesthetized immediately before radiation treatment, and then the tumor-bearing leg is irradiated with X-rays at 1.4 Gy/minute, receiving a dose of 15 Gy. The growth of tumor volume in the mice after irradiation is followed for 3 weeks.

[4] = another study; cited from earlier work
[5] = test system: breast cancer cells; settings: tissue culture; methotrexate killing; cited from earlier work
[6] = test system: soluble IGF-1 binding proteins; settings: compared to native IGF-1; Francis 1992, Tomas 1993; cited from earlier work

| Molecule | proportion of cells in the G2 and M phases of the cell cycle [1] | sensitization to radiation [2] | cell killing by radiation [2] | effectiveness of radiation therapy (growth of tumor volume) [3] | enhancement of uptake of methotrexate [4] [factor] | enhancement of the killing of breast cancer cells [5] | binding affinity for the soluble IGF-1 binding proteins [6] |
| --- | --- | --- | --- | --- | --- | --- | --- |
| insulin-like growth factor-1 [IGF-1] | moves a greater proportion of the cells into the G2 and M phases | sensitized to radiation | increase cell killing by radiation | enhance the effectiveness of radiation therapy |  |  |  |
| growth hormone |  |  |  | enhance the effectiveness of radiation therapy |  |  |  |
| insulin |  | sensitized to radiation | increase cell killing by radiation | enhance the effectiveness of radiation therapy | 2 | up to 10,000 fold |  |
| B1 |  |  |  |  |  |  | reduced binding affinity |
